The supplement of paper PMC10627819

Key:
S. pneumoniae D39V [1] = test: Bliss interaction score (quartile over a dose matrix) (fitness difference); higher = more antagonism (negative = synergy)
Method in brief: (§1)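 Combination data were used to infer fitness under each single drug. Fitness is the OD595 at entry into stationary phase divided by the robust mean of the plate's no-drug wells, with a cap of 1. The Bliss score is the observed minus the expected product fitness, summarised by quartiles over technical, biological and donor/recipient replicates.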

S. aureus Newman = test: as above
Method in brief: as §1

S. aureus DSM 20231 [2] = test: as above
Method in brief: as §1

B. subtilis 168 [3] = test: as above
Method in brief: as §1

S. pneumoniae D39V [4] = test: fitness (endpoint OD595 vs no drug) (fraction); higher = more growth
Method in brief: (§2)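 In 384-well plates at 37 °C, cultures began at OD595 0.01 in 30 µl, with 55 µl used for S. pneumoniae. OD595 readings every 30 min for 14 h were corrected by the first reading. Fitness divides the stationary-phase transition optical density by the robust mean of no-drug control wells. The result is capped at 1.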

S. aureus DSM 20231 [5] = test: as above
Method in brief: as §2

B. subtilis 168 [6] = test: as above
Method in brief: as §2
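For Bliss interaction score (quartile over a dose matrix) in this document: first quartile when negative (synergy) and third quartile when positive (antagonism).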

CO/N=C(\C(=O)N[C@@H]1C(=O)N2C(C(=O)[O-])=C(C[N+]3(C)CCCC3)CS[C@H]12)c1csc(N)n1 [Cefepime] + CCC[C@@H]1C[C@@H](C(=O)N[C@@H]([C@H]2O[C@H](SC)[C@H](O)[C@@H](O)[C@H]2O)[C@@H](C)O)N(C)C1 [Lincomycin]
Settings | Bliss interaction score
B. subtilis 168 [3] | -0.0344
S. aureus DSM 20231 [2] | 0.188
S. aureus Newman | 0.0822
S. pneumoniae D39V [1] | 0.2

Settings | fitness
S. aureus DSM 20231 [5], first compound 0.125 µg/mL, partner 0.1 µg/mL | 0.877
S. aureus DSM 20231 [5], first compound 0.125 µg/mL, partner 0.2 µg/mL | 0.876
S. aureus DSM 20231 [5], first compound 0.25 µg/mL, partner 0.1 µg/mL | 0.939
S. aureus DSM 20231 [5], first compound 0.25 µg/mL, partner 0.2 µg/mL | 0.908
S. aureus DSM 20231 [5], first compound 0.5 µg/mL, partner 0.1 µg/mL | 0.906
S. aureus DSM 20231 [5], first compound 0.5 µg/mL, partner 0.2 µg/mL | 0.835
S. pneumoniae D39V [4], first compound 0.007 µg/mL, partner 0.2 µg/mL | 0.734
S. pneumoniae D39V [4], first compound 0.007 µg/mL, partner 0.4 µg/mL | 0.521
S. pneumoniae D39V [4], first compound 0.007 µg/mL, partner 0.8 µg/mL | 0.198
S. pneumoniae D39V [4], first compound 0.0078 µg/mL, partner 0.215 µg/mL | 0.909
S. pneumoniae D39V [4], first compound 0.0078 µg/mL, partner 0.43 µg/mL | 0.823
S. pneumoniae D39V [4], first compound 0.0078 µg/mL, partner 0.86 µg/mL | 0.593
S. pneumoniae D39V [4], first compound 0.014 µg/mL, partner 0.2 µg/mL | 0.729
S. pneumoniae D39V [4], first compound 0.014 µg/mL, partner 0.4 µg/mL | 0.523
S. pneumoniae D39V [4], first compound 0.014 µg/mL, partner 0.8 µg/mL | 0.185
S. pneumoniae D39V [4], first compound 0.0155 µg/mL, partner 0.215 µg/mL | 0.878
S. pneumoniae D39V [4], first compound 0.0155 µg/mL, partner 0.43 µg/mL | 0.821
S. pneumoniae D39V [4], first compound 0.0155 µg/mL, partner 0.86 µg/mL | 0.514
S. pneumoniae D39V [4], first compound 0.028 µg/mL, partner 0.2 µg/mL | 0.674
S. pneumoniae D39V [4], first compound 0.028 µg/mL, partner 0.4 µg/mL | 0.458
S. pneumoniae D39V [4], first compound 0.028 µg/mL, partner 0.8 µg/mL | 0.133
S. pneumoniae D39V [4], first compound 0.031 µg/mL, partner 0.215 µg/mL | 0.82
S. pneumoniae D39V [4], first compound 0.031 µg/mL, partner 0.43 µg/mL | 0.723
S. pneumoniae D39V [4], first compound 0.031 µg/mL, partner 0.86 µg/mL | 0.323

CO/N=C(\C(=O)N[C@@H]1C(=O)N2C(C(=O)[O-])=C(C[N+]3(C)CCCC3)CS[C@H]12)c1csc(N)n1 [Cefepime] + COc1cc(Cc2cnc(N)nc2N)cc(OC)c1OC [Trimethoprim]
Settings | Bliss interaction score
B. subtilis 168 [3] | 0.0732
S. aureus DSM 20231 [2] | 0.0714
S. aureus Newman | 0.0778
S. pneumoniae D39V [1] | 0.255

fitness, S. aureus DSM 20231 [5]
Settings | partner 0.125 µg/mL | partner 0.25 µg/mL | partner 0.5 µg/mL | partner 1 µg/mL
first compound 0.125 µg/mL | 0.629 | 0.556 | 0.272 | 0.0708
first compound 0.25 µg/mL | 0.631 | 0.573 | – | 0.0608
first compound 0.5 µg/mL | 0.679 | 0.612 | – | 0.0509

CCCCCCCCCC(=O)N[C@@H](Cc1c[nH]c2ccccc12)C(=O)N[C@H](CC(N)=O)C(=O)N[C@@H](CC(=O)O)C(=O)N[C@@H]1C(=O)NCC(=O)N[C@@H](CCCN)C(=O)N[C@@H](CC(=O)O)C(=O)N[C@H](C)C(=O)N[C@@H](CC(=O)O)C(=O)NCC(=O)N[C@H](CO)C(=O)N[C@@H]([C@H](C)CC(=O)O)C(=O)N[C@@H](CC(=O)c2ccccc2N)C(=O)O[C@@H]1C [Daptomycin] + CC(=O)NC[C@H]1CN(c2ccc(N3CCOCC3)c(F)c2)C(=O)O1 [Linezolid]
Settings | Bliss interaction score
B. subtilis 168 [3] | 0.0563
S. aureus DSM 20231 [2] | 0.0745
S. aureus Newman | 0.0604
S. pneumoniae D39V [1] | -0.141

fitness
Settings | first compound 0.125 µg/mL | first compound 0.25 µg/mL | first compound 0.5 µg/mL | first compound 1 µg/mL | first compound 2 µg/mL | first compound 4 µg/mL
B. subtilis 168 [6], partner 0.125 µg/mL | 0.604 | 0.605 | 0.508 | – | – | –
B. subtilis 168 [6], partner 0.25 µg/mL | 0.0809 | – | – | – | – | –
B. subtilis 168 [6], partner 0.5 µg/mL | 0.0486 | 0.0567 | 0.0348 | – | – | –
S. aureus DSM 20231 [5], partner 0.125 µg/mL | – | – | 0.844 | 0.928 | 0.951 | –
S. aureus DSM 20231 [5], partner 0.25 µg/mL | 0.629 | 0.595 | 0.651 | 0.823 | 0.775 | –
S. aureus DSM 20231 [5], partner 0.5 µg/mL | 0.19 | 0.177 | 0.257 | 0.319 | 0.335 | –
S. pneumoniae D39V [4], partner 0.105 µg/mL | – | – | – | 0.741 | 0.786 | 0.77
S. pneumoniae D39V [4], partner 0.2 µg/mL | – | – | – | 0.409 | 0.413 | 0.412
S. pneumoniae D39V [4], partner 0.21 µg/mL | – | – | – | 0.651 | 0.689 | 0.689
S. pneumoniae D39V [4], partner 0.4 µg/mL | – | – | – | 0.207 | 0.22 | 0.205
S. pneumoniae D39V [4], partner 0.42 µg/mL | – | – | – | 0.476 | 0.447 | 0.554
S. pneumoniae D39V [4], partner 0.8 µg/mL | – | – | – | 0.0731 | 0.0931 | 0.0732

one replicate
Settings | fitness
B. subtilis 168 [6], first compound 0.125 µg/mL, partner 0.0625 µg/mL | 0.944
B. subtilis 168 [6], first compound 0.25 µg/mL, partner 0.0625 µg/mL | 0.932
B. subtilis 168 [6], first compound 0.5 µg/mL, partner 0.0625 µg/mL | 0.802
B. subtilis 168 [6], first compound 1 µg/mL, partner 0.125 µg/mL | 0.6
B. subtilis 168 [6], first compound 1 µg/mL, partner 0.25 µg/mL | 0.279
B. subtilis 168 [6], first compound 1 µg/mL, partner 0.5 µg/mL | 0.0175
S. aureus DSM 20231 [5], first compound 0.125 µg/mL, partner 0.125 µg/mL | 0.729
S. aureus DSM 20231 [5], first compound 0.125 µg/mL, partner 1 µg/mL | 0.0431
S. aureus DSM 20231 [5], first compound 0.25 µg/mL, partner 0.125 µg/mL | 0.869
S. aureus DSM 20231 [5], first compound 0.25 µg/mL, partner 1 µg/mL | 0.0221
S. aureus DSM 20231 [5], first compound 0.5 µg/mL, partner 1 µg/mL | 0.0214
